Experimental data: patent US8048924B2, “Methods and compositions employing 4-aminophenylacetic acid compounds” (Biocon Limited, priority 2001, dated 2011)
“Also recorded” adds a separate entry of the source.

Columns and labels:
[1] = test system: Clostridium difficile toxin A-induced colitis; assay: Toxin A-induced colitis, acute intraluminal pretreatment of isolated colonic segment; type: in vivo, Sprague-Dawley rats; conditions: for toxin A-induced structural damage of the colon (H&E) / percent inhibition of toxin A-induced MPO activity / percent inhibition of toxin A-induced luminal fluid accumulation: 30 minutes before toxin A; for relative potency and interaction for inhibition of acute toxin A-induced colitis: given alone versus together
Description: (§1) Drug Administration. In studies using chronic administration, sulfasalazine, APAZA™, and 4-APAA were administered in the drinking water at doses ranging from 0.1-100 mg/kg·d for 5 days. Sulfasalazine and APAZA™ were initially dissolved in 0.1 N NaOH at 30 times the desired final concentration and then the pH was adjusted to 8.5 with 1 N HCl and the solution was diluted 30-fold with distilled water. 4-APAA was dissolved in water. On the fifth day, the rats were fasted overnight (with access to their drinking water±sulfasalazine, APAZA™, or 4-APAA ad lib), anesthetized, and isolated colonic segments were surgically created as described below. In studies using acute administration, the rats were pretreated by injection of 4-APAA at doses of 10 or 100 μg in 200 μl of PBS (pH 7.4) into the lumen of the colonic segment using a 27 ga syringe needle. Toxin A (10 μg) in 200 μl of PBS (pH 7.4) was tested alone or injected into the lumen of the colonic segment 30 minutes after 4-APAA using a 27 ga syringe needle.
(§2) Surgery. Isolated colonic segments were created in male Sprague-Dawley rats (150-175 g) as described previously for isolated ileal segments (see, Gastroenterol. 111: 1272-1280 (1996) and Proc. Natl. Acad. Sci. USA 91: 947-951 (1994). Rats fasted overnight with free access to drinking water were anesthetized by intramuscular injection of 67 mg/kg ketamine:33 mg/kg xylazine. A midline abdominal incision was made and colonic segments 5 cm in length were created by ligation with 4-0 silk sutures, taking care not to disturb the vascular supply. Toxin A (10 μg) in 400 μl of PBS (pH 7.4) was injected into the lumen of the colonic segment using a 27 ga syringe needle. Control rats were prepared similarly and their colonic segments were injected with the vehicles. The midline incision was then closed with a running suture, and the rats were placed on a heating pad at 37° C. for 3 hours. After 3 hours, the rats were euthanized and samples of the treated colonic segments were taken for analysis in vitro.
(§3) Histopathology. The severity of colonic histological damage was assessed using formalin-fixed, paraffin-embedded, H&E-stained sections.
(§4) Luminal Fluid Accumulation. Luminal fluid accumulation was measured gravimetrically. After 3 hours of treatment, the isolated colonic segments were removed, weighed, and their lengths were measured. Luminal fluid accumulation is expressed as mg wet weight per cm length.
(§5) Myeloperoxidase Activity. Myeloperoxidase (MPO) activity was measured as described previously (see, J. Invest. Dermatol. 78: 206-209 (1982)). Briefly, pieces of control and treated colonic segments were homogenized in 0.5% hexadecyltrimethylammonium bromide in 50 mM KH2PO4 (pH 6), freeze/thawed three times, centrifuged at 4° C. for 2 minutes, and then the absorbance of each supernatant was read at 460 nm at 0, 30, and 60 seconds after the addition of 2.9 ml of o-dianisidine dihydrochloride to 0.1 ml supernatant. The maximal change in absorbance per minute was used to calculate the units of MPO activity based on the molar absorbency index of oxidized o-dianisidine of 1.13×10^4 M^−1 cm^−1. The results are expressed as MPO units of activity per mg of tissue wet weight.
Adult male Sprague-Dawley rats (175-225 grams body weight) were purchased from Charles River Labs (Raleigh, N.C.). 4-APAA and 5-ASA were separately injected into the lumen of an isolated segment of the rat colon at doses of 0.01, 0.1, 1, and 10 μg (in volumes of 200 μl) 30 minutes prior to injection of 10 μg of Clostridium difficile toxin A. In a follow-up study, a combined dose of 10 ng (0.01 μg) each of 4-APAA and 5-ASA was injected prior to toxin A.
[…] Colonic inflammation was assessed by quantitating luminal fluid accumulation and myeloperoxidase content in the colonic segment tissue, and by examination of colonic structural damage using hematoxylin & eosin-stained sections of the treated colonic segment.
Surgery. […]

[2] = test system: Clostridium difficile toxin A-induced colitis; assay: Toxin A-induced colitis, chronic oral administration in drinking water for 5 days; type: in vivo, Sprague-Dawley rats; conditions: for potency relative to sulfasalazine for inhibiting toxin A-induced colitis: chronic oral, dose-response studies; for doses that significantly inhibited toxin A-induced colitis: chronically for 5 days in drinking water, doses tested 1-100
Description: Eighteen adult male Sprague-Dawley rats weighing 175-222 grams were divided into 3 groups each consisting of 6 animals: • 4-APAA (AA-002) 100 mg/kg orally+Toxin A (10 μg) injected into the lumen of the colon • Vehicle (DW) orally+Toxin A (10 μg) injected into the lumen of the colon • Vehicle (DW) orally
Following 5 days of 4-APAA administration in drinking water, both ketamine (67 mg/kg) and xylazine (33 mg/kg) were administered, an isolated colonic segment was surgically created, and 10 μg of Clostridium difficile toxin A was injected into the lumen of the colon. After 3 hours, the rats were euthanized and colonic inflammation was assessed by quantitating luminal fluid accumulation and myeloperoxidase (MPO) content in the colon tissue. In addition, histological evaluation of the treated colon segments was completed.
as §1, §2, §3, §4
as §5, with “The results are expressed as MPO units of activity per mg of tissue wet weight.” left out

[3] = 0.01 μg (10 ng) each, intraluminal
[4] = 0.5 mg/kg·day in drinking water, 5 days
[5] = 1 mg/kg·day in drinking water, 5 days
[6] = 10 mg/kg·day in drinking water, 5 days
[7] = 100 mg/kg·day in drinking water, 5 days
[8] = 100 mg/kg·day in drinking water, 5 days, toxin A 10 μg

## Nc1ccc(O)c(C(=O)O)c1 [5-ASA, 5-amino-2-hydroxy-benzoic acid, reference compound]
[1]; [3]
  toxin A-induced MPO activity, significance of inhibition: not significantly inhibited
  toxin A-induced luminal fluid accumulation, significance of inhibition: significantly inhibited
  toxin A-induced structural damage of the colon (H&E): did not prevent
[1]; 0.1 μg intraluminal
  toxin A-induced luminal fluid accumulation, significance of inhibition: significantly inhibited
  toxin A-induced structural damage of the colon (H&E): partially preserved surface ulceration
[1]; 1.0 μg intraluminal
  toxin A-induced MPO activity, significance of inhibition: significantly inhibited
  toxin A-induced luminal fluid accumulation, significance of inhibition: significantly inhibited
  toxin A-induced structural damage of the colon (H&E): mucosal folding was also largely preserved
[1]; 10 μg intraluminal
  toxin A-induced MPO activity, significance of inhibition: significantly inhibited
  toxin A-induced luminal fluid accumulation, significance of inhibition: significantly inhibited
  toxin A-induced structural damage of the colon (H&E): virtually completely protected
[1]
  relative potency and interaction for inhibition of acute toxin A-induced colitis: approximately equipotent

## O=C(O)Cc1ccc(/N=N/c2ccc(O)c(C(=O)O)c2)cc1 [APAZA™, 5-(4-carboxymethyl-phenylazo)-2-hydroxy-benzoic acid]
[2]; 0.1 mg/kg·day in drinking water, 5 days
  toxin A-induced structural damage of the colon (H&E): little if any protective effect
[2]; [4]
  toxin A-induced luminal fluid accumulation, significance of inhibition: significantly inhibited
  toxin A-induced structural damage of the colon (H&E): partially protected
[2]; [5]
  toxin A-induced MPO activity, significance of inhibition: significantly inhibited
  toxin A-induced luminal fluid accumulation, significance of inhibition: significantly inhibited
  toxin A-induced structural damage of the colon (H&E): strongly protected
[2]; [6]
  toxin A-induced MPO activity, significance of inhibition: significantly inhibited
  toxin A-induced luminal fluid accumulation, significance of inhibition: significantly inhibited
  toxin A-induced structural damage of the colon (H&E): strongly protected
[2]; [7]
  toxin A-induced MPO activity, significance of inhibition: significantly inhibited
  toxin A-induced luminal fluid accumulation, significance of inhibition: significantly inhibited
  toxin A-induced structural damage of the colon (H&E): strongly protected
[2]
  potency relative to sulfasalazine for inhibiting toxin A-induced colitis: 10-20 fold
  doses that significantly inhibited toxin A-induced colitis: 1-100 mg/kg·day
[2]; listed as APAZA™ compound
  potency relative to sulfasalazine for inhibiting toxin A-induced colitis: 10-100 fold

## Nc1ccc(CC(=O)O)cc1 [4-APAA, (4-aminophenyl)-acetic acid]
[1]; [3]
  toxin A-induced MPO activity, significance of inhibition: not significantly inhibited
  toxin A-induced luminal fluid accumulation, significance of inhibition: significantly inhibited
  toxin A-induced structural damage of the colon (H&E): did not prevent
[1]; 0.1 μg intraluminal
  toxin A-induced luminal fluid accumulation, significance of inhibition: significantly inhibited
  toxin A-induced structural damage of the colon (H&E): preserved mucosal folding
[1]; 1.0 μg intraluminal
  toxin A-induced MPO activity, significance of inhibition: significantly inhibited
  toxin A-induced luminal fluid accumulation, significance of inhibition: significantly inhibited
  toxin A-induced structural damage of the colon (H&E): preserved mucosal folding
[1]; 10 μg intraluminal
  toxin A-induced MPO activity, significance of inhibition: significantly inhibited
  toxin A-induced luminal fluid accumulation, significance of inhibition: significantly inhibited
  percent inhibition of toxin A-induced MPO activity: 91±8%
  percent inhibition of toxin A-induced luminal fluid accumulation: 52±4%
  toxin A-induced structural damage of the colon (H&E): strongly protected; also recorded: virtually completely protected
[1]; 100 μg intraluminal
  percent inhibition of toxin A-induced MPO activity: 89±10%
  percent inhibition of toxin A-induced luminal fluid accumulation: 80±5%
  toxin A-induced structural damage of the colon (H&E): strongly protected
[1]
  relative potency and interaction for inhibition of acute toxin A-induced colitis: approximately equipotent
[1]; intraluminal injection 30 minutes before toxin A, 10 and 100 μg tested
  lowest dose that strongly inhibited toxin A-induced colitis in this experiment: 10 μg/segment
[2]; [7]
  toxin A-induced MPO activity, significance of inhibition: significantly inhibited
  toxin A-induced luminal fluid accumulation, significance of inhibition: significantly inhibited
  toxin A-induced structural damage of the colon (H&E): protected the structural integrity; also recorded: strongly protected
[2]; [8]
  percent inhibition of toxin A-induced MPO activity: 89±8%
  percent inhibition of toxin A-induced luminal fluid accumulation: 84±6%
[2]
  doses that significantly inhibited toxin A-induced colitis: 100 mg/kg·day
